In patent publication US8110681B2, “Compounds for the treatment of spinal muscular atrophy and other uses” (The United States of America as represented by the …, priority 2006, dated 2012):
Like-named read-outs stand apart in the source and are kept apart here.

Assays:
[1] = tested on: SMN2-linked luciferase-reporter gene construct; experiment: SMN splice reporter assay (SMN2-linked luciferase reporter, Example 10); format: cell-based; details: for maximal fold induction: read-out: SMN Splice Reporter Assay (Example 10) Avg MaxFold Increase
How it was run: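 Values are fold-increase in luciferase signal relative to baseline cells without compound. The cervical carcinoma line used holds a fusion of alternatively spliced SMN2 sequence and luciferase. Readable frame, and thus signal, arises only with exon 7-including splicing.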

[2] = tested on: luciferase reporter containing the UAG stop codon; experiment: Translational read-through luciferase reporter assay, UAG stop codon; format: cell-based; details: read-out: MaxFold Increase
Excerpt: This assay is described in detail in WO 01/44516 A2. This is a cell-based luciferase reporter assay designed to detect translational read-through via insertion of a translational stop codon within the luciferase coding sequence. In the presence of compounds that promote read-through of translational stop codons, active luciferase is produced and detected via chemiluminescence. We have shown that indoprofen analogs are active in two versions of this assay—one containing a UGA stop codon and one containing a UAG stop codon. The data in the table is from the luciferase reporter containing the UAG stop codon. This is the first stop codon downstream of the improper splice junction between exons 6 and 8 in the human SMN2 transcript.

[3] = Plasma and brain pharmacokinetics in mice; format: in vivo, FVB or CD-1 mice; details: 5 mg/kg, single dose
Method: Compounds were formulated in solution using the method of cosolvency as described by Lee et al., Int. J. Pharmaceutics, 253: 111-119 (2003). FVB or CD-1 mice, approximately 5 weeks old, were given a single dose of compound at the indicated concentration. Compounds were administered orally, with the exception of ALB-116638 and ALB-117573, which were administered IV. Three to five mice were euthanized at various times between 15 minutes and 24 hours after dosing and brain and plasma were harvested. Tissues were homogenized in acetonitrile and analyzed on an API 4000 LC/MS/MS system coupled with an Agilent 1100 series liquid chromatograph. All pharmacokinetic analyses were conducted using WinNonlin (Version 4.01; Pharsight, Palo Alto, Calif.) with the exception of brain/plasma ratios, which were calculated using Microsoft Excel 2000. AUC values are the area under the concentration-time curve from time zero to the last measured time point. The half life values are extrapolated from 3-4 time points taken at less than 4 hours after dosing.

[4] = SMN2-linked luciferase reporter, average
[5] = maximum fold increase of reporter signal, average
[6] = SMN2-linked luciferase reporter, average maximum fold increase

Row | SMILES | EC50 [1, 4] | maximal fold induction [1, 5] | maximal fold induction [2] | maximal fold induction [1, 6] | further results
1 | CCCc1ccc2c(c1)C(=O)N(c1ccc(C(C)C(=O)OC(C)(C)C)cc1)C2 (stereo not drawn) [ALB-113213] | 565 nM | 1.23 | 1.9 |  | 
2 | CC(C(=O)O)c1ccc(N2Cc3ccc(N(C)C)cc3C2=O)cc1 (stereo not drawn) [ALB-113648] | 28 nM | 1.6 | 3.3 |  | 
3 | CC(C(=O)O)c1ccc(N2Cc3ccc(C(F)(F)F)cc3C2=O)cc1 (stereo not drawn) [ALB-113652] | 1490 nM | 1.66 | 2.9 |  | 
4 | Br.COCC(C)c1ccc(N2Cc3ccc(C)cc3C2=O)cc1 (stereo not drawn) [ALB-113967] | 159 nM | 1.54 | 2.6 |  | Brain AUC ([3]; oral): 170.5 ng·h/g; Kp ([3]; mouse, brain and plasma, oral, read-out: Brain/Plasma Ratio): 0.29; half-life ([3]; mouse, brain, oral, read-out: Brain T½ (converted)): 1.1 h; AUC ([3]; mouse, plasma, oral): 595 ng·h/mL; half-life ([3]; mouse, plasma, oral, read-out: Plasma T½ (converted)): 1.5 h
5 | CC(C)c1ccc(N2Cc3ccccc3C2=O)cc1 [ALB-114274] | 52 nM | 1.4 | 2.6 |  | 
6 | COc1ccc2c(c1)C(=O)N(c1ccc(C(C)C(O)OC)cc1)C2 (stereo not drawn) [ALB-114441] | 76 nM | 1.67 | 3.2 |  | 
7 | COCC(C)c1ccc(N2Cc3ccc(OC)cc3C2=O)cc1 (stereo not drawn) [ALB-114783] | 186 nM | 1.37 | 2.6 |  | 
8 | CC(C(=O)O)c1ccc(N2Cc3cc4c(cc3C2=O)OCCO4)cc1 (stereo not drawn) [ALB-114844] | 8 nM | 1.36 | 2.4 |  | 
9 | COc1ccc2c(c1)C(=O)N(c1ccc(C)cc1)C2 [ALB-115084] | 60 nM | 1.39 | 2.3 |  | 
10 | Cc1cccc2c1C(=O)N(c1ccc(C(C)C)cc1)C2 [ALB-115812] | 163 nM | 1.35 | 3 |  | 
11 | CC(C)c1ccc(N2Cc3cc4c(cc3C2=O)OCO4)cc1 [ALB-116362] | 123 nM |  | 2.3 | 1.52 | 
12 | CCCC(C)c1ccc(N2Cc3ccc(OC)cc3C2=O)cc1 (stereo not drawn) [ALB-117451] | 2910 nM | 1.74 | 2.1 |  | 
13 | CC(C)(C)c1ccc(N2Cc3cc4c(cc3C2=O)OCCO4)cc1 [ALB-117452] | 289 nM |  | 2.2 | 1.4 | 
14 | CC(C)c1ccc(N2Cc3cccc(Cl)c3C2=O)cc1 [ALB-117454] | 470 nM | 1.51 | 3.1 |  | 
15 | COc1ccc(-c2ccc3c(c2)C(=O)N(c2ccc(C(C)C)cc2)C3)cc1 [ALB-118038] |  | 1.08 |  |  | 
16 | CC(C)c1ccc(N2Cc3cccc(O)c3C2=O)cc1 [ALB-118158] | 733 nM |  |  | 1.54 | 
17 | CC(C)c1ccc(N2Cc3cc(OC(F)F)ccc3C2=O)cc1 [ALB-118159] | 2090 nM |  |  | 1.32 | 

Row | SMILES | EC50 [1, 4] | maximal fold induction [1, 5] | maximal fold induction [2] | maximal fold induction [1, 6] | further results
18 | CC(C)c1ccc(N2Cc3ccc4c(c3C2=O)OCCO4)cc1 [ALB-118160] | 46 nM |  |  | 1.43 | 
19 | CCOc1ccc2c(c1)CN(c1ccc(C(C)C)cc1)C2=O [ALB-118276] |  | 1.05 |  |  | 
20 | CCOc1cccc2c1C(=O)N(c1ccc(C(C)C)cc1)C2 [ALB-118278] | 1380 nM | 1.5 |  |  | 
21 | CC(C)c1ccc(N2Cc3cccc(OC(F)F)c3C2=O)cc1 [ALB-118279] | 220 nM |  |  | 1.55 | 
22 | COc1cc2c(cc1F)CN(c1ccc(C(C)C)cc1)C2=O [ALB-118413] | 119 nM | 1.39 |  |  | 
23 | CC(C)c1ccc(N2Cc3ccc(NC(=O)Nc4ccccc4)cc3C2=O)cc1 [ALB-118416] |  |  |  | 1.17 | 
24 | CC(C)NC(=O)Nc1ccc2c(c1)C(=O)N(c1ccc(C(C)C)cc1)C2 [ALB-118559] |  |  |  | 1.1 | 
25 | CCN(C)C(=O)Nc1ccc2c(c1)C(=O)N(c1ccc(C(C)C)cc1)C2 [ALB-118732] |  |  |  | 1.15 | 
26 | CC(C)c1ccc(N2Cc3ccc(NC(=O)N(C)c4ccccc4)cc3C2=O)cc1 [ALB-118733] |  |  |  | 1.12 | 
27 | CCCN(C)C(=O)Nc1ccc2c(c1)C(=O)N(c1ccc(C(C)C)cc1)C2 [ALB-118898] |  |  |  | 1.06 | 
28 | CC(C)c1ccc(N2Cc3ccc(NC(=O)N(C)C(C)C)cc3C2=O)cc1 [ALB-118899] |  |  |  | 1.08 | 
29 | CC(C)(C)c1ccc(N2Cc3ccc(OC(F)F)cc3C2=O)cc1 [ALB-119043] | 992 nM |  |  | 1.39 | 
30 | COc1cc2c(cc1F)CN(c1ccc(C(C)C(=O)O)cc1)C2=O (stereo not drawn) [ALB-119048] | 255 nM | 1.54 |  |  | 
31 | CCN(C)C(=O)N(C)c1ccc2c(c1)C(=O)N(c1ccc(C(C)C)cc1)C2 [ALB-119049] |  |  |  | 1.08 | 
32 | CC(C(=O)O)c1ccc(N2Cc3ccc(OC(F)F)cc3C2=O)cc1 (stereo not drawn) [ALB-119335] | 51 nM |  |  | 1.54 | 
33 | CC(C(=O)OC(C)(C)C)c1ccc(N2Cc3ccc(OC(F)F)cc3C2=O)cc1 (stereo not drawn) [ALB-119336] | 718 nM |  |  | 1.21 | 
34 | Cc1ccc(N2Cc3ccc(OC(F)F)cc3C2=O)cc1 [ALB-119515] | 146 nM |  |  | 1.46 | 

Continued, in another order:

Row | EC50 [1, 4] | SMILES | maximal fold induction [1, 5] | maximal fold induction [2] | maximal fold induction [1, 6] | further results
35 | 267 nM | CC(C(=O)O)c1ccc(N2Cc3ccc(Cl)cc3C2=O)cc1 (stereo not drawn) [ALB-111743] | 1.67 | 2.7 |  | 
36 | 193 nM | CC(C)c1ccc(N2Cc3ccc(Br)cc3C2=O)cc1 [ALB-114901] | 1.52 | 2.6 |  | 
37 | 97 nM | Cc1ccc2c(c1)C(=O)N(c1ccc(C(C)C)cc1)C2 [ALB-115586] | 1.32 | 2.3 |  | 
38 | 30 nM | Cc1ccc2c(c1)CN(c1ccc(C(C)C)cc1)C2=O [ALB-115948] | 1.42 | 2.8 |  | 
39 | 310 nM | CCOc1ccc2c(c1)C(=O)N(c1ccc(C(C)C)cc1)C2 [ALB-116074] | 1.51 | 2.9 |  | 
40 | 267 nM | CC(C)c1ccc(N2Cc3ccc(O)cc3C2=O)cc1 [ALB-116078] |  | 3.3 | 1.64 | 
41 | 31 nM | CC(C)c1ccc(N2Cc3ccc(Cl)cc3C2=O)cc1 [ALB-116246] | 1.35 | 2.7 |  | 
42 | 166 nM | CC(C)c1ccc(N2Cc3ccc(N(C)S(C)(=O)=O)cc3C2=O)cc1 [ALB-116638] |  |  | 1.51 | Brain AUC ([3]; IV): 537.2 ng·h/g; half-life ([3]; mouse, brain, IV, read-out: Brain T½ (converted)): 7.3 h
43 | 81 nM | CC(C)c1ccc(N2Cc3cc(Cl)ccc3C2=O)cc1 [ALB-116932] | 1.45 | 2.4 |  | 
44 | 90 nM | CNc1ccc2c(c1)C(=O)N(c1ccc(C(C)C)cc1)C2 [ALB-117046] | 1.44 | 2.9 |  | 
45 | 1100 nM | CC(C)c1ccc(N2Cc3ccc(C(F)(F)F)cc3C2=O)cc1 [ALB-117902] | 1.57 | 2 |  | 
46 | 203 nM | CC(=O)Nc1ccc2c(c1)C(=O)N(c1ccc(C(C)C)cc1)C2 [ALB-118157] |  |  | 1.51 | 
47 | 27 nM | CC(C)c1ccc(N2Cc3cc(O)ccc3C2=O)cc1 [ALB-118277] |  |  | 1.15 | 
48 | 3530 nM | CCNC(=O)Nc1ccc2c(c1)C(=O)N(c1ccc(C(C)C)cc1)C2 [ALB-118414] |  |  | 1.35 | 
49 | 13200 nM | CCCNC(=O)Nc1ccc2c(c1)C(=O)N(c1ccc(C(C)C)cc1)C2 [ALB-118415] |  |  | 1.4 | 
50 | 865 nM | CNC(=O)Nc1ccc2c(c1)C(=O)N(c1ccc(C(C)C)cc1)C2 [ALB-118558] |  |  | 1.58 | 
51 | 854 nM | CC(C)c1ccc(N2Cc3ccc(NC(=O)N(C)C)cc3C2=O)cc1 [ALB-118731] |  |  | 1.2 | 
52 | 493 nM | CC(C)c1ccc(N2Cc3ccc(N(C)C(=O)N(C)C)cc3C2=O)cc1 [ALB-118901] |  |  | 1.31 | 
